# From ChEMBL document CHEMBL3739415, “Synthesis of functionalized new conjugates of batracylin with tuftsin/retro-tuftsin derivatives and their biological evaluation” (Eur J Med Chem, 2015)
# Activity calls are given as the source filed them. No cut-off for these calls is given here. Non-standard residues stand in square brackets, D forms with d. Residues, ends and D or L forms follow the SMILES beside them. *: point of attachment. Batracylin(8-NH) = O=C1c2ccccc2C2=Nc3ccc(N*)cc3CN12; Arg(NO2) = N=C(NCCC[C@H](N)C(=O)O)N[N+](=O)[O-]
# Legend:
# [1] = system: A549; experiment: Cytotoxicity against human A549 cells after 120 hrs by MTT assay; assay type: functional, cell-based; details: A549, 120 h
# [2] = Cytotoxicity against human HL60 cells after 120 hrs by MTT assay; assay type: functional, cell-based; details: HL-60, 120 h
# [3] = system: HL-60; experiment: Ratio of BAT IC50 to compound IC50 for human HL60 cells after 120 hrs by MTT assay; assay type: functional
# [4] = system: A549; experiment: Ratio of BAT IC50 to compound IC50 for human A549 cells after 120 hrs by MTT assay; assay type: functional
# [5] = target: T1, DNA topoisomerase 1 (Homo sapiens) (UniProt P11387); experiment: Inhibition of human topoisomerase-1-mediated relaxation of supercoiled plasmid pBR322 DNA at 1 to 100 uM after 30 mins by ethidium bromide staining
# T1 sequence (whole entry): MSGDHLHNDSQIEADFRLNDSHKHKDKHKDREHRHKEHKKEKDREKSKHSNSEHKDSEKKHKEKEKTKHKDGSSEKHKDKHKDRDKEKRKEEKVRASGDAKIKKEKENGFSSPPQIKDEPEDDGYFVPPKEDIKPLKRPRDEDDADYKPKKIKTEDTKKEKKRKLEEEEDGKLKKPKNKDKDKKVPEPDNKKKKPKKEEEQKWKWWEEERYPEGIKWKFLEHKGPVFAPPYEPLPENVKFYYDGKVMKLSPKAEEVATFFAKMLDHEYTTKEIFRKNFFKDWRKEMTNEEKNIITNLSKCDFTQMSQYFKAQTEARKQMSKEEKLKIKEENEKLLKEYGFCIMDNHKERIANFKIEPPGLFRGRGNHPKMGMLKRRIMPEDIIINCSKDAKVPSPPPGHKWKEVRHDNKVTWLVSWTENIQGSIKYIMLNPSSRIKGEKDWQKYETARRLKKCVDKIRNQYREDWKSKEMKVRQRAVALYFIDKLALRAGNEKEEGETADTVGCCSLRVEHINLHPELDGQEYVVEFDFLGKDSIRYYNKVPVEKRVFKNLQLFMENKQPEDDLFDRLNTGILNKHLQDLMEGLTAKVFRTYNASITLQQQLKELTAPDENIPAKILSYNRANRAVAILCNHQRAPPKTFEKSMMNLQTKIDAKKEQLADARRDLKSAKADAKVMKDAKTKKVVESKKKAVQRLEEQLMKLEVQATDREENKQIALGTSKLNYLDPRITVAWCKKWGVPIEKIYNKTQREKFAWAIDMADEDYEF
# [6] = target: DNA topoisomerase 2-alpha (Homo sapiens) (UniProt P11388); experiment: Inhibition of human topoisomerase-2alpha-mediated relaxation of supercoiled plasmid pBR322 DNA after 30 mins by ethidium bromide staining
# [7] = system: A549; experiment: Induction of DNA damage in human A549 cells assessed as phosphorylation of H2AX histone at IC90 after 3 hrs by fluorescence microscopy; assay type: functional, cell-based
# [8] = system: A549; experiment: Cell cycle arrest in human A549 cells assessed as accumulation at G2/M phase at IC90 after 24 hrs using propidium iodide staining by flow cytometry analysis; assay type: functional, cell-based
# [9] = system: A549; experiment: Cell cycle arrest in human A549 cells assessed as accumulation at G2/M phase at IC90 after 120 hrs using propidium iodide staining by flow cytometry analysis; assay type: functional, cell-based
# [10] = system: A549; experiment: Induction of apoptosis in human A549 cells assessed as change in nuclear and cellular morphology at IC90 up to 120 hrs using Hoechst-33342 staining by fluorescent microscope analysis; assay type: functional, cell-based
# [11] = Cell cycle arrest in human HL60 cells assessed as accumulation at G2/M phase at IC90 after 24 to 120 hrs using propidium iodide staining by flow cytometry analysis; assay type: functional, cell-based; details: HL-60
# [12] = Cell cycle arrest in human HL60 cells assessed as abnormal mitotic figures at IC90 after 24 to 120 hrs using propidium iodide staining by flow cytometry analysis; assay type: functional, cell-based; details: HL-60
# [13] = system: HL-60; experiment: Induction of apoptosis in human HL60 cells assessed as increase of debris fraction at IC90 up to 120 hrs using Hoechst-33342 staining by fluorescent microscope analysis relative to BAT; assay type: functional, cell-based
# [14] = system: HL-60; experiment: Induction of apoptosis in human HL60 cells assessed as micronucleated cells at IC90 up to 120 hrs using Hoechst-33342 staining by fluorescent microscope analysis relative to BAT; assay type: functional, cell-based
# [15] = system: HL-60; experiment: Induction of apoptosis in human HL60 cells assessed as fraction of polyploid cells at IC90 up to 120 hrs using Hoechst-33342 staining by fluorescent microscope analysis relative to BAT; assay type: functional, cell-based
# [16] = Cytotoxicity against human HCT116 cells after 120 hrs by MTT assay; assay type: functional, cell-based; details: HCT-116, 120 h
# [17] = system: HT-29; experiment: Cytotoxicity against human HT-29 cells after 120 hrs by MTT assay; assay type: functional, cell-based; details: HT-29, 120 h
# [18] = system: LNCaP; experiment: Cytotoxicity against human LNCAP cells after 120 hrs by MTT assay; assay type: functional, cell-based
# [19] = system: MCF7; experiment: Cytotoxicity against human MCF7 cells after 120 hrs by MTT assay; assay type: functional, cell-based; details: MCF7, 120 h
# [20] = system: P388; experiment: Cytotoxicity against mouse P388 cells after 120 hrs by MTT assay; assay type: functional, cell-based; details: P388, 120 h
# [21] = system: L1210; experiment: Cytotoxicity against mouse L1210 cells after 120 hrs by MTT assay; assay type: functional, cell-based; details: L1210, 120 h
# [22] = Cytotoxicity against mouse WEHI1640 cells after 120 hrs by MTT assay; assay type: functional, cell-based; details: WEHI1640, 120 h
# [23] = Cytotoxicity against mouse NIH/3T3 cells after 120 hrs by MTT assay; assay type: functional, cell-based; details: NIH3T3, 120 h
# DNA topoisomerase 2-alpha (Homo sapiens), sequence (P11388 whole entry): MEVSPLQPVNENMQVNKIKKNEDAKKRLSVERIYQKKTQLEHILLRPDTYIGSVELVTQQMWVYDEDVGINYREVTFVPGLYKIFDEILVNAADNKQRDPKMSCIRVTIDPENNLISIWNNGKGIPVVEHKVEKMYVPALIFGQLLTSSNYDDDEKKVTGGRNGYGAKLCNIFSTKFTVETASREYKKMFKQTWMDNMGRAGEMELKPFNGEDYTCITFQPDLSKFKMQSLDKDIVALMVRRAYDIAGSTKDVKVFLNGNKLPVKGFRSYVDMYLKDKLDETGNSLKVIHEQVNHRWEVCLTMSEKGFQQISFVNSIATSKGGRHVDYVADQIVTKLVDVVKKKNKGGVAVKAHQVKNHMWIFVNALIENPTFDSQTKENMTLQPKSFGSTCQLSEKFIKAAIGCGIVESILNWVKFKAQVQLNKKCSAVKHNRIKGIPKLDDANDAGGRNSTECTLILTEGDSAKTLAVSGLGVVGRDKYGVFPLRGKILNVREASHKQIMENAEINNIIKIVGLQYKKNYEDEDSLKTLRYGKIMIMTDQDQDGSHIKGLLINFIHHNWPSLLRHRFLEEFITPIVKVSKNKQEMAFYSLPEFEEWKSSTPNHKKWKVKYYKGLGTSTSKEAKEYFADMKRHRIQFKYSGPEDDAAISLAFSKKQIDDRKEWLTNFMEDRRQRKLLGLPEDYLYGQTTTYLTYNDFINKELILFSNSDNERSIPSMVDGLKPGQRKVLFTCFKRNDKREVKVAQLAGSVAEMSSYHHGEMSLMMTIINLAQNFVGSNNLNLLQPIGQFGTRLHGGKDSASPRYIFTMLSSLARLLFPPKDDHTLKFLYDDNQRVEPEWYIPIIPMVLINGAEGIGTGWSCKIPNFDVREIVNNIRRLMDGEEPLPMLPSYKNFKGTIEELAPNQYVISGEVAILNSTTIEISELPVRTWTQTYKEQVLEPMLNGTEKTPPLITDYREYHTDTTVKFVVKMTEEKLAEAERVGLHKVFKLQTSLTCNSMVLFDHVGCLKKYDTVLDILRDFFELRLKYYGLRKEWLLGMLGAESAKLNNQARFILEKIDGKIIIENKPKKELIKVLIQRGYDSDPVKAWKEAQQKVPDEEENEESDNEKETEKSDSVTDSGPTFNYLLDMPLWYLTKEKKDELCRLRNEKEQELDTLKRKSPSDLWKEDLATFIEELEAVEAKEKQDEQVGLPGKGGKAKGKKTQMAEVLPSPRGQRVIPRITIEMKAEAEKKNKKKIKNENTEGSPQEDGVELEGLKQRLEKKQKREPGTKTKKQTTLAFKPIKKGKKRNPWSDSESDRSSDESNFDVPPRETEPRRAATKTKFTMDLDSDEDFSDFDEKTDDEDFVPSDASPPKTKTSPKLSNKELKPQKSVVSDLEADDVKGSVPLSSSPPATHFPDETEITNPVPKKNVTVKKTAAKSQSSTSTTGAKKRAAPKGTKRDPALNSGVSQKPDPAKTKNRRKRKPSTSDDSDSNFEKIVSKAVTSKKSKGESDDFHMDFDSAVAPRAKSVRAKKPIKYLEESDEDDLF
smiles,measurement,setting,value
C[C@H](N)C(=O)NCCCC[C@H](NC(=O)[C@@H]1CCCN1C(=O)[C@@H](N)CCCNC(=N)N[N+](=O)[O-])C(=O)N[C@H](C(=O)Nc1ccc2c(c1)CN1C(=O)c3ccccc3C1=N2)[C@@H](C)O (H-[Arg(NO2)]PK(Ala)T-{Batracylin(8-NH)}),IC50,[1],5.6 µM
same,IC50,[2],11.1 µM
C[C@@H](O)[C@H](NC(=O)[C@H](CCCCNC(=O)CN)NC(=O)[C@@H]1CCCN1C(=O)[C@@H](N)CCCNC(=N)N[N+](=O)[O-])C(=O)Nc1ccc2c(c1)CN1C(=O)c3ccccc3C1=N2 (H-[Arg(NO2)]PK(Gly)T-{Batracylin(8-NH)}),IC50,[1],> 100 µM
same,IC50,[2],28.7 µM
CC[C@H](C)[C@H](N)C(=O)NCCCC[C@H](NC(=O)[C@@H]1CCCN1C(=O)[C@@H](N)CCCNC(=N)N[N+](=O)[O-])C(=O)N[C@H](C(=O)Nc1ccc2c(c1)CN1C(=O)c3ccccc3C1=N2)[C@@H](C)O (H-[Arg(NO2)]PK(Ile)T-{Batracylin(8-NH)}),IC50,[1],4.8 µM
same,IC50,[2],4.7 µM
same,Ratio IC50,[3],>=10
same,Ratio IC50,[4],>=10
same,inhibition,[5],inactive
same,inhibition,[6],Dose-dependent effect
CC(C)C[C@H](N)C(=O)NCCCC[C@H](NC(=O)[C@@H]1CCCN1C(=O)[C@@H](N)CCCNC(=N)N[N+](=O)[O-])C(=O)N[C@H](C(=O)Nc1ccc2c(c1)CN1C(=O)c3ccccc3C1=N2)[C@@H](C)O (H-[Arg(NO2)]PK(Leu)T-{Batracylin(8-NH)}),IC50,[1],4 µM
same,IC50,[2],5.3 µM
same,Ratio IC50,[3],>=10
same,Ratio IC50,[4],>=10
same,inhibition,[5],inactive
same,inhibition,[6],Dose-dependent effect
same,Activity,[7],Active
same,Activity,[8],Active
same,Activity,[9],Active
same,Activity,[10],inactive
same,Activity,[11],inactive
same,Activity,[12],Active
same,Activity,[13],Active
same,Activity,[14],Active
same,Activity,[15],Active
CC(C)[C@H](N)C(=O)NCCCC[C@H](NC(=O)[C@@H]1CCCN1C(=O)[C@@H](N)CCCNC(=N)N[N+](=O)[O-])C(=O)N[C@H](C(=O)Nc1ccc2c(c1)CN1C(=O)c3ccccc3C1=N2)[C@@H](C)O (H-[Arg(NO2)]PK(Val)T-{Batracylin(8-NH)}),IC50,[1],13.1 µM
same,IC50,[2],11 µM
C[C@@H](O)[C@H](NC(=O)[C@H](CCCCN)NC(=O)[C@@H]1CCCN1C(=O)[C@@H](N)CCCNC(=N)N[N+](=O)[O-])C(=O)Nc1ccc2c(c1)CN1C(=O)c3ccccc3C1=N2 (H-[Arg(NO2)]PKT-{Batracylin(8-NH)}),IC50,[1],8.7 µM
same,IC50,[2],30.8 µM
same,Ratio IC50,[3],2
same,Ratio IC50,[4],5
Nc1ccc2c(c1)CN1C(=O)c3ccccc3C1=N2 [DANIQUIDONE],IC50,[1],46.3 µM
same,IC50,[16],88.7 µM
same,IC50,[17],64.3 µM
same,IC50,[18],90.2 µM
same,IC50,[19],> 100 µM
same,IC50,[2],66.6 µM
same,IC50,[20],> 100 µM
same,IC50,[21],> 100 µM
same,IC50,[22],58.4 µM
same,IC50,[23],69.9 µM
same,inhibition,[5],inactive
same,inhibition,[6],Dose-dependent effect
same,Activity,[7],Active
same,Activity,[8],Active
same,Activity,[9],Active
same,Activity,[10],inactive
same,Activity,[11],inactive
same,Activity,[12],Active
same,Activity,[13],Active
same,Activity,[14],Active
same,Activity,[15],Active
